Data published in US20100184677A1, “USE OF THE HUMAN PANCREATIC POLYPEPTIDE AS A THERAPEUTIC AGENT” (priority 2007, published 2010).

What was measured:
[1] = system: HepG2-2.2.15 cells; test: Cell viability (dye uptake assay) in HepG2-2.2.15 cells; conditions: HepG2-2.2.15 cells; test peptide 10 micrograms per ml; dye uptake assay (% cell control)
[2] = in vitro; conditions: human, MRC-5 cells (embryonal lung fibroblasts)
[3] = system: Streptococcus pneumoniae; type: cell-based; conditions: 5 micrograms per ml
[4] = system: Pseudomonas aeruginosa; type: cell-based; conditions: 5 micrograms per ml
[5] = Cell viability (dye uptake assay) in HepG2-2.2.15 cells; conditions: human
[6] = system: MRSA; conditions: 5 micrograms per ml
[7] = in vitro; conditions: human
[8] = system: MRC-5 cells; conditions: human, 6 days

## Nc1ccn([C@@H]2CS[C@H](CO)O2)c(=O)n1 [3TC, Lamivudine, reference compound]
[1]
  % Cell Viability: 95.8%

## CC[C@H](C)[C@H](NC(=O)[C@H](Cc1ccc(O)cc1)NC(=O)[C@H](CCCNC(=N)N)NC(=O)[C@H](CCCNC(=N)N)NC(=O)[C@H](CC(C)C)NC(=O)[C@H](CC(=O)O)NC(=O)[C@H](C)NC(=O)[C@H](C)NC(=O)[C@H](Cc1ccc(O)cc1)NC(=O)[C@H](CCC(N)=O)NC(=O)[C@H](C)NC(=O)[C@H](CCSC)NC(=O)[C@H](CCC(N)=O)NC(=O)[C@H](CCC(=O)O)NC(=O)[C@@H]1CCCN1C(=O)[C@@H](NC(=O)[C@H](C)NC(=O)[C@H](CC(N)=O)NC(=O)[C@H](CC(=O)O)NC(=O)CNC(=O)[C@@H]1CCCN1C(=O)[C@H](Cc1ccc(O)cc1)NC(=O)[C@@H](NC(=O)[C@@H]1CCCN1C(=O)[C@H](CCC(=O)O)NC(=O)[C@H](CC(C)C)NC(=O)[C@@H]1CCCN1C(=O)[C@H](C)N)C(C)C)[C@@H](C)O)C(=O)N[C@@H](CC(N)=O)C(=O)N[C@@H](CCSC)C(=O)N[C@@H](CC(C)C)C(=O)N[C@H](C(=O)N[C@@H](CCCNC(=N)N)C(=O)N1CCC[C@H]1C(=O)N[C@@H](CCCNC(=N)N)C(=O)N[C@@H](Cc1ccc(O)cc1)C(N)=O)[C@@H](C)O [Pancreatic polypeptide]
[2]
  viability at 144 h: 100%
[3]
  % inhibition: 0.0%
[4]
  % inhibition: 0.0%
[5]
  viability at 144 h, 10 micrograms per ml: 92.5%
[6]
  % inhibition: 0.0%
[7]
  viability at 10 micrograms per ml: 90.2%

## Nc1nc(O)c2ncn(COC(CO)CO)c2n1 [Ganciclovir]
[8]
  % Cell Viability: 100%
